Experimental data published in patent publication US4656128A, “Modified alkaline phosphatase” (Research Corporation, priority 1985, dated 1987).

What was measured:
[1] = target: T1, E. coli alkaline phosphatase, native (strain CW3747) (Escherichia coli, UniProt P00634); assay: Kinetic constants, hydrolysis of PNPP to p-nitrophenol; format: biochemical; conditions: native enzyme, 1M Tris HCl
T1 construct: The monomer is an unglycosylated single chain of 449 amino acids in its mature form; made in house; host or cells: E. coli strain CW3747 (ATCC 27256), enzyme isolated by the method of Applebury et al. 1970
Experimental: B, Native alkaline phosphatase, [K2 HPO4 ]-0 (0), 1×10^-5 M ( ), 3×10^-5 M (Δ). The enzyme was assayed as described under "Materials and Methods" in Example I except that the assay solution contained K2 HPO4 at the indicated concentration and PNPP at concentrations ranging from 5×10^-6 to 1×10^-3 M.
Enzyme and Chemicals - Alkaline phosphatase was isolated from E. coli strain CW3747 (A.T.C.C. 27256) according to the method described by Applebury et al. (Applebury, M. L. et al. J. Biol. Chem. 245: 4968 (1970)). Enzyme concentrations were determined spectrophotometrically at 278 nm using E1 cm^0.1% =0.72. Molar calculations were based on Mr =94,000. The enzyme activity was assayed as the rate of hydrolysis of PNPP^1 to p-nitrophenol. The reaction was monitored by following the increase in absorbance at 410 nm (Δε=1.62×10^4M^-1 cm^-1) in a solution of 1×10^-3 M PNPP, 1M Tris HCl, 10 mM MgCl2, 5×10^-5 M ZnCl2, pH 8.0, 20° C.

[2] = target: T2, E. coli alkaline phosphatase, trypsin-modified (tm-AP; NH2-terminal 10 or 11 amino acids removed, cleaved at Arg-10 Ala-11) (Escherichia coli, UniProt P00634); assay: as above; format: biochemical; conditions: trypsin-modified enzyme, 1M Tris HCl
T2 construct: trypsin cleaves the Arg-10 Ala-11 bond leaving Ala as the NH2 -terminal residue; made in house; host or cells: E. coli strain CW3747 enzyme treated with trypsin, purified by chromatofocusing
Experimental: The enzyme was assayed as described under "Materials and Methods" in Example I except that the assay solution contained K2 HPO4 at the indicated concentration and PNPP at concentrations ranging from 5×10^-6 to 1×10^-3 M.
Enzyme and Chemicals - Alkaline phosphatase was isolated from E. coli strain CW3747 (A.T.C.C. 27256) according to the method described by Applebury et al. (Applebury, M. L. et al. J. Biol. Chem. 245: 4968 (1970)). Enzyme concentrations were determined spectrophotometrically at 278 nm using E1 cm^0.1% =0.72. Molar calculations were based on Mr =94,000. The enzyme activity was assayed as the rate of hydrolysis of PNPP^1 to p-nitrophenol. The reaction was monitored by following the increase in absorbance at 410 nm (Δε=1.62×10^4M^-1 cm^-1) in a solution of 1×10^-3 M PNPP, 1M Tris HCl, 10 mM MgCl2, 5×10^-5 M ZnCl2, pH 8.0, 20° C. […] Trypsin, PNPP, and carboxypeptidase Y were obtained from Sigma. […] All other chemicals employed were reagent grade.
To prepare trypsin-modified alkaline phosphatase, native alkaline phosphatase (3 mg/ml) was treated with 10% (w/w) trypsin for 60 min at 20° C. and the major protein peak was isolated using the above chromatofocusing procedure.

[3] = 10 mM MgCl2, 5×10^-5 M ZnCl2, pH 8.0, 20° C, PNPP 5×10^-6 to 1×10^-3 M

T1 sequence (P00634 23-471): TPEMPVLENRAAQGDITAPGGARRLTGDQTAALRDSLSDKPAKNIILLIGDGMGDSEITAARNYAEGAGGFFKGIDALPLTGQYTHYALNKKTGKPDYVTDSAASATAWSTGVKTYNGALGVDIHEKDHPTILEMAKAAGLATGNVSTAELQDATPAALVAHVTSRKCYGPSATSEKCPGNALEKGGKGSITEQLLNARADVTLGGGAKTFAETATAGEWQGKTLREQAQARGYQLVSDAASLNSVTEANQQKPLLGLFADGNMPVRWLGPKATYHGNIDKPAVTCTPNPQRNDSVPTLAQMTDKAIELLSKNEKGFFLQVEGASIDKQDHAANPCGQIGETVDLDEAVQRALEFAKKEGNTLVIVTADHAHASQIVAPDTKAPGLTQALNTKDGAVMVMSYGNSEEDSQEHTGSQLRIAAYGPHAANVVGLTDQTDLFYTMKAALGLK
T2 sequence (P00634 33-471): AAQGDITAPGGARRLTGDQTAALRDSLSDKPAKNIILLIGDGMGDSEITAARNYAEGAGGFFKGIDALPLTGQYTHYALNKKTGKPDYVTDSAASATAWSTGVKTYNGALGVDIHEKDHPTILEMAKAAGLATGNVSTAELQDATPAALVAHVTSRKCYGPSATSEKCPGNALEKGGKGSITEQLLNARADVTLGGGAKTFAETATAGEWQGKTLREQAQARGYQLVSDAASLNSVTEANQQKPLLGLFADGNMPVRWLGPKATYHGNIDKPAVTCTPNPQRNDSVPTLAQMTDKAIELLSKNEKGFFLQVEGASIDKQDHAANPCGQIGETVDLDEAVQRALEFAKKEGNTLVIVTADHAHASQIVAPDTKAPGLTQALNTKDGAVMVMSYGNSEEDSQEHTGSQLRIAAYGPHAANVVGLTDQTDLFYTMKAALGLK

O=[N+]([O-])c1ccc(OP(=O)(O)O)cc1 [PNPP, p-nitrophenolphosphate]
Km [1, 3]: 40 µM | Vmax (PNPP) ([1]; pH 8.0, 20° C): 2500 µmol/h/mg | Km [2, 3]: 19 µM | Vmax (PNPP) ([2]; pH 8.0, 20° C): 2000 µmol/h/mg
